According to US20230135729A1, “COMPOUND WITH ANTI-SPORE ACTIVITY AND PHARMACEUTICAL COMPOSITION THEREOF” (priority 2020, published 2023):
Values after ≈ are worked out from the molar mass of the structure shown.

What was measured:
Type in all cases: cell-based
[1] = system: spores of ATCC 43255 strain; test: Inhibition of germination of C. difficile spores (MIC), strain ATCC 43255; conditions: Clostridioides difficile, ATCC43255, 1 h; strain 43255; sodium taurocholate as germinant, BHIS medium, 37° C., OD580 for 60 min; read-out: MIC (minimum concentration that completely inhibits spore germination)
Protocol: (§1) According to a method disclosed in “The Journal of Infectious Diseases. 2013; 207: 1498-504”, spores of ATCC BBA1870, ATCC 43255 and ATCC 630 strains were obtained by culture and purification, and stored at 4° C.
(§2) Spore preparation: the C. difficile spores stored at 4° C. were heat-activated for 30 min at 65° C., centrifuged at 9,400 g for 2 min, and washed three times to remove any self-germinating spores.
(§3) Control drug: three cholic acid derivatives, a compound CamSA, a compound 20β (prepared by the method of “Journal of Medicinal Chemistry. 2017, 60 (8): 3451-3471”), and a compound 12a (prepared by the method of “Journal of Medicinal Chemistry. 2018, 61, 6759-6778”), were used as control drugs.
(§4) Compound preparation: the compound of the present disclosure, and the positive control drugs CamSA, 20β, and 12a were dissolved in DMSO, to prepare a stock solution with a concentration of 10 mM (prepared for immediate use).
(§5) The detection was conducted in a 96-well cell culture plate at a constant temperature of 37° C.; a final volume of each well of the 96-well plate was […] and a buffer was the BHIS medium; 150 μl of spores and drugs were added to the well in advance, and 50 μl of 4 mg/ml sodium taurocholate was added; OD580 was detected every 1 min immediately using a microplate reader, for continuously 60 min. A germination agent control group and a non-germination group were set up; after the detection, a final OD value of each well was compared with an initial value, and compared with the germination agent group to calculate a germination rate and an inhibition rate. A formula for the germination rate was:
(§6) Inhibition rate=100%−germination rate.

[2] = system: spores of ATCC 630 strain; test: Inhibition of germination of C. difficile spores (MIC), strain ATCC 630; conditions: Clostridioides difficile, ATCC630, 1 h; strain 630; sodium taurocholate as germinant, BHIS medium, 37° C., OD580 for 60 min; read-out: MIC (minimum concentration that completely inhibits spore germination)
Protocol: as §1, §2, §3, §4, §5, §6

[3] = system: spores of ATCC BBA1870 strain; test: Inhibition of germination of C. difficile spores (MIC), strain ATCC BBA1870; conditions: Clostridioides difficile, ATCCBBA1870STRAIN, 1 h; strain 1870; sodium taurocholate as germinant, BHIS medium, 37° C., OD580 for 60 min; read-out: MIC (minimum concentration that completely inhibits spore germination)
Protocol: as §1, §2, §3, §4, §5, §6

| SMILES | MIC [1] [µM] | MIC [2] [µM] | MIC [3] [µM] |
| --- | --- | --- | --- |
| CC[C@@H](NC(=O)C[C@@H](C)[C@H]1CC[C@H]2[C@@H]3[C@H](O)CC4=CC(=O)C=C[C@]4(C)[C@H]3CC[C@]12C)c1ccc(Br)s1 [Compound I-159-2] | 0.5 (≈ 0.287 µg/mL) | 0.5 (≈ 0.287 µg/mL) | 0.5 (≈ 0.287 µg/mL) |
| C[C@H](CC(=O)NCc1ccco1)[C@H]1CC[C@H]2[C@@H]3[C@H](O)C[C@@H]4C[C@H](O)CC[C@]4(C)[C@H]3CC[C@]12C [Compound I-2] | 8 (≈ 3.66 µg/mL) | 8 (≈ 3.66 µg/mL) | 16 (≈ 7.32 µg/mL) |
| CCCCC(NC(=O)C[C@@H](C)[C@H]1CC[C@H]2[C@@H]3C(=O)C[C@@H]4CC(=O)CC[C@]4(C)[C@H]3CC[C@]12C)c1cccs1 (stereo partly drawn) [Compound I-42] | 1 (≈ 0.526 µg/mL) | 1 (≈ 0.526 µg/mL) | 2 (≈ 1.05 µg/mL) |
| CC[C@@H](NC(=O)C[C@@H](C)[C@H]1CC[C@H]2[C@@H]3[C@H](O)[C@H](O)[C@@H]4CC(=O)CC[C@]4(C)[C@H]3CC[C@]12C)c1cccs1 [Compound I-122] | 128 (≈ 66 µg/mL) | 128 (≈ 66 µg/mL) | 128 (≈ 66 µg/mL) |
| Cc1ccsc1C(C)NC(=O)C[C@@H](C)[C@H]1CC[C@H]2[C@@H]3C(=O)C[C@@H]4CC(=O)CC[C@]4(C)[C@H]3CC[C@]12C (stereo partly drawn) [Compound I-31] | 8 (≈ 3.98 µg/mL) | 8 (≈ 3.98 µg/mL) | 8 (≈ 3.98 µg/mL) |
| CC[C@@H](NC(=O)C[C@@H](C)[C@H]1CC[C@H]2[C@@H]3[C@H](OC(C)=O)CC4=CC(=O)CC[C@]4(C)[C@H]3CC[C@]12C)c1ccc(Br)s1 [I-155 -1] | 0.25 (≈ 0.155 µg/mL) | 0.25 (≈ 0.155 µg/mL) | 0.25 (≈ 0.155 µg/mL) |
| CO[C@@H]1CC[C@@]2(C)[C@@H](C1)C[C@@H](O)[C@@H]1[C@@H]2CC[C@]2(C)[C@@H]([C@H](C)CC(=O)N[C@@H](c3ccc(Cl)s3)C(C)C)CC[C@@H]12 [Compound I-170] | 128 (≈ 72.2 µg/mL) | 128 (≈ 72.2 µg/mL) | 128 (≈ 72.2 µg/mL) |
| CC[C@@H](NC(=O)C[C@@H](C)[C@H]1CC[C@H]2[C@@H]3[C@H](O)CC4=CC(=O)CC[C@]4(C)[C@H]3CC[C@]12C)c1ccc(Cl)s1 [Compound I-157-2] | 0.5 (≈ 0.266 µg/mL) | 0.25 (≈ 0.133 µg/mL) | 0.25 (≈ 0.133 µg/mL) |
| CCCCCCCC(=O)O[C@@H]1C[C@@H]2CC(=O)CC[C@]2(C)[C@H]2CC[C@]3(C)[C@@H]([C@H](C)CC(=O)N[C@H](CC)c4ccc(Cl)s4)CC[C@H]3[C@H]12 [Compound I-183] | 128 (≈ 84.5 µg/mL) | 128 (≈ 84.5 µg/mL) | 256 (≈ 169 µg/mL) |
| CC[C@@H](NC(=O)C[C@@H](C)[C@H]1CC[C@H]2[C@@H]3C(=O)C[C@@H]4CC(=O)CC[C@]4(C)[C@H]3CC[C@]12C)c1ccc(C(C)=O)s1 [Compound I-201] | 32 (≈ 17.3 µg/mL) | 32 (≈ 17.3 µg/mL) | 32 (≈ 17.3 µg/mL) |
| CC(C)[C@@H](NC(=O)C[C@@H](C)[C@H]1CC[C@H]2[C@@H]3C(=O)C[C@@H]4CC(=O)CC[C@]4(C)[C@H]3CC[C@]12C)c1ccc(Br)s1 [Compound I-80] | 0.125 (≈ 0.0738 µg/mL) | 0.125 (≈ 0.0738 µg/mL) | 0.125 (≈ 0.0738 µg/mL) |
| C[C@H](CC(=O)NC(c1cccs1)C1CCC1)[C@H]1CC[C@H]2[C@@H]3C(=O)C[C@@H]4CC(=O)CC[C@]4(C)[C@H]3CC[C@]12C (stereo partly drawn) [Compound I-57] | 32 (≈ 16.8 µg/mL) | 16 (≈ 8.38 µg/mL) | 32 (≈ 16.8 µg/mL) |
| CC(C)C(NC(=O)C[C@@H](C)[C@H]1CC[C@H]2[C@@H]3C(=O)C[C@@H]4CC(=O)CC[C@]4(C)[C@H]3CC[C@]12C)c1cccs1 (stereo partly drawn) [Compound I-40] | 2 (≈ 1.02 µg/mL) | 2 (≈ 1.02 µg/mL) | 4 (≈ 2.05 µg/mL) |
| CC(C)C(NC(=O)C[C@@H](C)[C@H]1CC[C@H]2[C@@H]3C(=O)C[C@@H]4CC(=O)CC[C@]4(C)[C@H]3CC[C@]12C)c1ccc(Br)s1 (stereo partly drawn) [Compound I-78] | 1 (≈ 0.591 µg/mL) | 0.5 (≈ 0.295 µg/mL) | 0.5 (≈ 0.295 µg/mL) |
| C[C@H](CC(=O)NC(C(=O)O)c1ccccc1)[C@H]1CC[C@H]2[C@@H]3C(=O)C[C@@H]4CC(=O)CC[C@]4(C)[C@H]3CC[C@]12C (stereo partly drawn) [Compound I-63] | 256 (≈ 130 µg/mL) | 256 (≈ 130 µg/mL) | > 256 |
| CC(C)[C@H](NC(=O)C[C@@H](C)[C@H]1CC[C@H]2[C@@H]3[C@H](O)C[C@@H]4CC(=O)CC[C@]4(C)[C@H]3CC[C@]12C)c1ccc(Cl)s1 [Compound I-96] | 4 (≈ 2.19 µg/mL) | 4 (≈ 2.19 µg/mL) | 4 (≈ 2.19 µg/mL) |
| CC(C)C(NC(=O)C[C@@H](C)[C@H]1CC[C@H]2[C@@H]3[C@H](O)C[C@@H]4CC(=O)CC[C@]4(C)[C@H]3CC[C@]12C)c1ccc(Cl)s1 (stereo partly drawn) [Compound I-95] | 0.25 (≈ 0.137 µg/mL) | 0.25 (≈ 0.137 µg/mL) | 0.25 (≈ 0.137 µg/mL) |
| CC[C@@H](NC(=O)C[C@@H](C)[C@H]1CC[C@H]2[C@@H]3[C@H](OC(=O)CCCCCCC(=O)O)C[C@@H]4CC(=O)CC[C@]4(C)[C@H]3CC[C@]12C)c1ccc(Br)s1 [Compound I-188] | 0.25 (≈ 0.184 µg/mL) | 0.25 (≈ 0.184 µg/mL) | 0.25 (≈ 0.184 µg/mL) |
| CC(=O)O[C@@H]1CC2=CC(=O)CC[C@]2(C)[C@H]2CC[C@]3(C)[C@@H]([C@H](C)CC(=O)N[C@@H](c4ccc(Br)s4)C(C)C)CC[C@H]3[C@H]12 [I-156 -1] | 0.5 (≈ 0.316 µg/mL) | 0.5 (≈ 0.316 µg/mL) | 0.5 (≈ 0.316 µg/mL) |
| CC(NC(=O)C[C@@H](C)[C@H]1CC[C@H]2[C@@H]3[C@H](O)C[C@@H]4C[C@H](O)CC[C@]4(C)[C@H]3CC[C@]12C)c1ccccc1 (stereo partly drawn) [Compound I-9] | 8 (≈ 3.85 µg/mL) | 8 (≈ 3.85 µg/mL) | 8 (≈ 3.85 µg/mL) |
| CC(C)[C@@H](NC(=O)C[C@@H](C)[C@H]1CC[C@H]2[C@@H]3[C@H](OC(=O)CCCCCCC(=O)O)C[C@@H]4CC(=O)CC[C@]4(C)[C@H]3CC[C@]12C)c1ccc(Cl)s1 [Compound I-189] | 0.25 (≈ 0.176 µg/mL) | 0.125 (≈ 0.0881 µg/mL) | 0.25 (≈ 0.176 µg/mL) |
| CC[C@@H](NC(=O)C[C@@H](C)[C@H]1CC[C@H]2[C@@H]3[C@H](O)CC4=CC(=O)CC[C@]4(C)[C@H]3CC[C@]12C)c1ccc(Br)s1 [Compound I-155-2] | 0.25 (≈ 0.144 µg/mL) | 0.25 (≈ 0.144 µg/mL) | 0.25 (≈ 0.144 µg/mL) |
| CC[C@@H](NC(=O)C[C@@H](C)[C@H]1CC[C@H]2[C@@H]3C(=O)C[C@@H]4CC(=O)CC[C@]4(C)[C@H]3CC[C@]12C)c1ccc(C(=O)CCCCCCC(=O)O)s1 [Compound I-205] | 128 (≈ 83.7 µg/mL) | 128 (≈ 83.7 µg/mL) | 128 (≈ 83.7 µg/mL) |
| CC(=O)O[C@@H]1C[C@@H]2CC(=O)CC[C@]2(C)[C@H]2CC[C@]3(C)[C@@H]([C@H](C)CC(=O)N[C@@H](c4ccc(Br)s4)C(C)C)CC[C@H]3[C@H]12 [Compound I-178] | 0.5 (≈ 0.317 µg/mL) | 0.5 (≈ 0.317 µg/mL) | 1 (≈ 0.635 µg/mL) |
| C[C@H](CC(=O)NCc1cccs1)[C@H]1CC[C@H]2[C@@H]3[C@@H](O)C[C@@H]4C[C@H](O)CC[C@]4(C)[C@H]3CC[C@]12C [Compound I-12] | 256 (≈ 121 µg/mL) | 256 (≈ 121 µg/mL) | 128 (≈ 60.6 µg/mL) |
| C[C@H](CC(=O)NCc1cccs1)[C@H]1CC[C@H]2[C@@H]3[C@H](O)C[C@@H]4C[C@H](O)CC[C@]4(C)[C@H]3CC[C@]12C [Compound I-3] | 8 (≈ 3.79 µg/mL) | 4 (≈ 1.89 µg/mL) | 8 (≈ 3.79 µg/mL) |
| CC(C)C(NC(=O)C[C@@H](C)[C@H]1CC[C@H]2[C@@H]3[C@H](O)C[C@@H]4CC(=O)CC[C@]4(C)[C@H]3CC[C@]12C)c1ccc(Br)s1 (stereo partly drawn) [Compound I-98] | 0.5 (≈ 0.296 µg/mL) | 0.5 (≈ 0.296 µg/mL) | 0.5 (≈ 0.296 µg/mL) |
| CC[C@@H](NC(=O)C[C@@H](C)[C@H]1CC[C@H]2[C@@H]3[C@H](O)C[C@@H]4CC(=O)CC[C@]4(C)[C@H]3CC[C@]12C)c1cccs1 [Compound I-133] | 2 (≈ 1 µg/mL) | 2 (≈ 1 µg/mL) | 2 (≈ 1 µg/mL) |
| CC(C)[C@@H](NC(=O)C[C@@H](C)[C@H]1CC[C@H]2[C@@H]3[C@H](N)C[C@@H]4C[C@H](O)CC[C@]4(C)[C@H]3CC[C@]12C)c1ccc(Cl)s1 [Compound I-173] | 16 (≈ 8.79 µg/mL) | 16 (≈ 8.79 µg/mL) | 32 (≈ 17.6 µg/mL) |
| CC[C@@H](NC(=O)C[C@@H](C)[C@H]1CC[C@H]2[C@@H]3[C@H](OC(C)=O)C[C@@H]4CC(=O)CC[C@]4(C)[C@H]3CC[C@]12C)c1ccc(Br)s1 [Compound I-176] | 0.5 (≈ 0.31 µg/mL) | 0.5 (≈ 0.31 µg/mL) | 0.5 (≈ 0.31 µg/mL) |
